Measurements taken from PubChem BioAssay (NCI).
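96-well plates; 48 h exposure; 5 concentrations. Endpoints by linear interpolation between flanking doses. Not reached: highest tested concentration assigned. At the GI50, growth is halved. At the TGI there is no net growth.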

Assays:
Test in all cases: inhibition of tumour cell growth, NCI panel, 48 h
UACC-257 melanoma = tested on: UACC-257 melanoma
TK-10 renal = tested on: TK-10 renal
NCI-H460 lung = tested on: NCI-H460 lung
MOLT-4 leukemia = tested on: MOLT-4 leukemia
RPMI-8226 leukemia = tested on: RPMI-8226 leukemia
CAKI-1 renal = tested on: CAKI-1 renal
DU-145 prostate = tested on: DU-145 prostate
HOP-92 NSCLC = tested on: HOP-92 NSCLC
K-562 leukemia = tested on: K-562 leukemia
KM12 colon = tested on: KM12 colon

SMILES	GI50 (UACC-257 melanoma) [µM]	TGI (UACC-257 melanoma) [µM]	GI50 (TK-10 renal) [µM]	TGI (TK-10 renal) [µM]	GI50 (NCI-H460 lung) [nM]	TGI (NCI-H460 lung) [µM]	GI50 (MOLT-4 leukemia) [µM]	TGI (MOLT-4 leukemia) [µM]	GI50 (RPMI-8226 leukemia) [µM]	TGI (RPMI-8226 leukemia) [µM]	GI50 (CAKI-1 renal) [µM]	TGI (CAKI-1 renal) [µM]	GI50 (DU-145 prostate) [µM]	TGI (DU-145 prostate) [µM]	GI50 (HOP-92 NSCLC) [µM]	TGI (HOP-92 NSCLC) [µM]	GI50 (K-562 leukemia) [µM]	TGI (K-562 leukemia) [µM]	GI50 (KM12 colon) [nM]	TGI (KM12 colon) [µM]
Cc1cc(I)cc(CN(C)CCCN2CCOCC2)c1O	21.6	44.8	45.6	> 100	35400	> 100	30.2	> 100	17.8	46	29.4	> 100	> 100	> 100	15.7	98.2	18	39.5	29600	> 100
CCn1c(CO)nn(-c2cc(O[C@@H](C)C(F)(F)F)c(C(=O)Nc3c(F)cccc3Cl)cc2F)c1=O		> 100			< 10	> 33.9	< 0.01	> 100	< 0.01	> 62.2	< 0.0148	> 100	< 0.0192	> 100	17.7	> 100	< 0.01	> 100	< 10	> 100
CC(C)CNC(=O)O		> 100		> 100		> 100		> 100		> 100		> 100		> 100		> 100		> 100		> 100
[Au+].[Au+].[Au+].[c-]1nccn1Cc1ccccc1.[c-]1nccn1Cc1ccccc1.[c-]1nccn1Cc1ccccc1	3.71	7.5	11.1	29.6	11600	54.5	7.96	> 100	3.9	> 100	11.2	25.9	17.7	32.4	2.34	4.25	3.82	25	7750	39.9
C[C@]12CC[C@@H]3c4ccc(O)cc4CC[C@H]3[C@@H]1CC[C@@H]2NS(=O)(=O)c1cccc(F)c1	4.07	16.3	4.14	13.8	2720	7.18	2.5	9.59	3.65	19.6	3.4	13.5	5.45	17.9	2.43	8.64	3.22	15.2	2340	6.31
COc1ccc2c(O)cc3c(c2c1)[C@H](CCl)CN3C(=O)c1cc2cc(NC(=O)CCN3CCOCC3)ccc2[se]1	< 0.001	0.00319	< 0.001		< 1	1.09	< 0.001	> 3.34	0.00149	0.0263	< 0.001	< 0.001	< 0.001	0.137	< 0.001	0.00216	< 0.001	> 10	< 1	
CCC(C)(C)c1ccc(OCCCCCCN2CCNCC2)cc1	2.11	4.43	1.8	3.46	1940	3.87	2.03	5.11	1.9	4.41	2.26	7.09	2.39	6.06	1.21	6.82	1.7	3.93	1880	3.5
Nc1nc(SN=Nc2ccc(S(N)(=O)=O)cc2)c2[nH]cnc2n1	1.62	> 100	0.448	23.6	384	13	0.32	6.93	0.283	3.33	0.332	6.57	0.469	> 94.8	0.429	22.4	0.299	> 100	1640	20
O=C(Nc1ccc(CO)cc1)c1coc2ccccc2c1=O	> 100	> 100	> 100	> 100	> 100000	> 100	> 100	> 100	84.8	> 100	> 100	> 100	> 100	> 100	29.4	> 100	> 100	> 100	> 100000	> 100
Cc1cc(C2CC(O)C(CO)O2)cc2c(=O)[nH]c(N)nc12 (centres undefined)	> 100	> 100			> 100000	> 100	> 100	> 100	> 100	> 100	> 100	> 100	> 100	> 100	> 100	> 100	> 100	> 100		
CCCCC1(CN2CCOCC2)S/C(=N/c2nc(CC(=O)OCC)cs2)NC1=O (centres undefined)	40.4	> 100	31.7	99.1			27.7	> 100	25.6	80.6	29.9	> 100	27	> 100	32.9	> 100	30.9	> 100	27700	> 100
